In patent US6924307B2, “Aminobutyric acid derivatives and pharmaceutical composition containing the same as active ingredient” (Ono Pharmaceutical Co., Ltd., priority 1999, dated 2005):

Key:
Format in all cases: biochemical
[1] = biological target: T1, gelatinase A (Homo sapiens, UniProt P08253); experiment: Inhibitory activity against gelatinase A (fluorogenic synthetic substrate); conditions: gelatinase A from progelatinase A purified from human normal skin dermal fibroblasts (HNDF), APMA-activated; 37° C.
T1 construct: endogenous in cells; host or cells: human normal skin dermal fibroblasts (HNDF)
T1 sequence (P08253 110-660): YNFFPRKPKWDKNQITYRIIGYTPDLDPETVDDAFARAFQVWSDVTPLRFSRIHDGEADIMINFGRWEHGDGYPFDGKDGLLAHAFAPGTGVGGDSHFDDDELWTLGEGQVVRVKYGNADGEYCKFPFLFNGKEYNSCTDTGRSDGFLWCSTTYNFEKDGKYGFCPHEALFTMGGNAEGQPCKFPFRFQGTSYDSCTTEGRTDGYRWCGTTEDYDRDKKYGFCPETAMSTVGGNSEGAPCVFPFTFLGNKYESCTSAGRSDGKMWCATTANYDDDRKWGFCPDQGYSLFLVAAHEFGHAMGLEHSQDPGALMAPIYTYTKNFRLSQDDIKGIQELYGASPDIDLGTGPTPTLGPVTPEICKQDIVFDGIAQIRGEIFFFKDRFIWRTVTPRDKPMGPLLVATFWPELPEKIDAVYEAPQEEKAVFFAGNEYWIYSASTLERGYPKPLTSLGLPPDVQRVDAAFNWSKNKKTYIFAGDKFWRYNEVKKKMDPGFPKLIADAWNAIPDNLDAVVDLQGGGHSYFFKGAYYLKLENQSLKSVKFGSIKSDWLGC
Protocol: (1) Inhibitory Activity Against Gelatinase A
The progelatinase A (5 μl; in assay buffer (40 μl)) was purified from human normal skin dermal fibroblasts (HNDF). It was activated by adding thereto 10 mM of p-aminophenylmercuric acetate (APMA) (5 μl) and preincubating for 1 hour at 37° C.
A mixture of the synthetic substrate (MOCAc-Pro-Leu-Gly-A2pr(Dnp)-Ala-Arg-NH2) (130 μl; a final concentration 13.5 μM) and a solution (20 μl) with or without various concentrations of the test compound was preincubated for 5 minutes at 37° C.
The solution of activated gelatinase A (50 μl/well) was mixed with the mixture and the mixture was incubated for 15 minutes at 37° C. The enzyme reaction was started. The enzyme activity was represented by increasing value of fluorescent intensity [Ex=325 nm (Ex)/393 nm (Em)] per 1 minute. Inhibitory activity was represented by inhibitory percentage (%) per enzyme activity without the test compound.

[2] = biological target: T2, human stromelysin (Homo sapiens, UniProt P08254); experiment: Inhibitory activity against stromelysin (synthetic substrate NFF-3, fluorescence); conditions: APMA-activated, pH 7.5, 37° C.
T2 construct: purchased Yagai
T2 sequence (P08254 100-477): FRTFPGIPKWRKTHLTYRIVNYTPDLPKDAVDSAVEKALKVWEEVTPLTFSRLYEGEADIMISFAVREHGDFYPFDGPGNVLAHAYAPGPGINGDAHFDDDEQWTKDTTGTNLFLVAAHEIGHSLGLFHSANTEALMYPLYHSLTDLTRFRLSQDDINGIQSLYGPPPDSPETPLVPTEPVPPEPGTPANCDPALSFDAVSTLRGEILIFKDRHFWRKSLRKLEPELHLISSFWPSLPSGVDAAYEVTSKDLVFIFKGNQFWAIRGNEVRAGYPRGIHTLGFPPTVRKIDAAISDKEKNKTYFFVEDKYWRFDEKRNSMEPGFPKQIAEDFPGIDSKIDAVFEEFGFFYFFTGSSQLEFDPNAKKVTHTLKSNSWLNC
Protocol: (3) Inhibitory Activity Against Stromelysin Method:
The mixture of human stromelysin (Yagai; 9 volume) and 10 mM p-aminophenylmercury acetate (1 volume) was activated for 20 hours at 37° C. A solution of the test compound in dimethylsulfoxide (10 μl) and 0.5 mM solution (10 μl) of 10 mM solution of the synthetic substrate NFF-3 (Mca-Arg-Pro-Lys-Pro-Val-Glu-Nva-Trp-Arg-Lys(DNP)-NH2., Nva: norvaline, Peptide Laboratory) in dimethylsulfoxide diluted by water were added to assay buffer (50 mM tris-HCl, 10 mM CaCl2, 0.05% Brij35, 0.02% NaN3 (pH 7.5)) (150 μl). Furthermore, assay buffer (30 μl) was added to the mixture. The mixture was incubated for 10 minutes at 37° C. The reaction was started by addition of a solution of the above activated stromelysin solution (50 μl). The enzyme activity was represented by increasing value of fluorescent intensity [Ex=325 nm (Ex)/393 nm (Em)] per 1 minute. Inhibitory activity was represented by inhibitory percentage (%) per enzyme activity without the test compound.

[3] = biological target: T3, collagenase (Homo sapiens, UniProt P03956); experiment: Inhibitory activity against collagenase (thiopeptolide synthetic substrate, absorption at 324 nm); conditions: collagenase from procollagenase purified from human normal skin dermal fibroblasts (HNDF), trypsin-activated; 26° C.
T3 construct: endogenous in cells; host or cells: human normal skin dermal fibroblasts (HNDF)
T3 sequence (P03956 100-469): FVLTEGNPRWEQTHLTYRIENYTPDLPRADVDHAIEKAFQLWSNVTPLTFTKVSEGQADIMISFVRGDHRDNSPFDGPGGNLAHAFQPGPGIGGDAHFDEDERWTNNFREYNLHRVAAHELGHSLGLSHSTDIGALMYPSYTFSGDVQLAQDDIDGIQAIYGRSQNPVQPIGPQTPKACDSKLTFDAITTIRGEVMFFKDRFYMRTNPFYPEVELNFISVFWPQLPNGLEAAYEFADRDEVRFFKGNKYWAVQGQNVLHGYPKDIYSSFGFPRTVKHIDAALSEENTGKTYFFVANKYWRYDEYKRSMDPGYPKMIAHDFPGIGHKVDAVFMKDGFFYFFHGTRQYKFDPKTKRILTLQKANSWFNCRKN
Protocol: (2) Inhibitory Activity Against Collagenase Method:
The procollagenase (5 μl; in assay buffer (105 μl)) was purified from human normal skin dermal fibroblasts (HNDF). It was activated by adding thereto 1 mg/ml Trypsin (45 μl) and preincubating for 1 minute at 37° C. Trypsin was inactivated by addition of 5 mg/ml soybean trypsin inhibitor (SBTI; 50 μl).
A mixture of the synthetic substrate (Ac-Pro-Leu-Gly-[2-mercapto-4-methyl-pentanoyl]-Leu-Gly-OEt) (105 μl; a final concentration 1.33 mM) and a solution (20 μl) with or without various concentrations of the test compound was preincubated for 5 minutes at 26° C.
The solution of activated enzyme (75 μl /tube, 50 μl) was mixed with the mixture and the mixture was incubated for 10 minutes at 26° C.
Absorption at 324 nm was measured 40 points in the course of 10 minutes. Vmax value was determined as measured value in 30 points therein.

Compound | IC50 [1] [nM] | IC50 [2] [nM] | IC50 [3] [nM]
CCOCOC[C@H](C[C@H](COC)C(=O)NO)NC(=O)c1ccc(Oc2ccccc2)cc1 [8(6), N-hydroxy-5-ethoxymethoxy-2(R)-methoxymethyl-4(S)-[N-(4-phenoxyphenylcarbonyl)amino]pentanamide] | 1.7 | 29 | –
CN(C(=O)c1ccc(Br)cc1)[C@H](CO)C[C@H](CCCc1ccccc1)C(=O)NO [16(2), N-hydroxy-2(S)-(3-phenylpropyl)-5-hydroxy-4(S)-[N-methyl-N-(4-bromophenylcarbonyl)amino]pentanamide] | 4.2 | – | –
C#CCOC[C@@H](C[C@@H](COCOCC)NC(=O)c1ccc(Cl)cc1)C(=O)NO [20(3), N-hydroxy-5-ethoxymethoxy-2(R)-(2-propynyloxymethyl)-4(S)-[N-(4-chlorophenylcarbonyl)amino]pentanamide] | – | – | 6.8
C#CC[C@@H](C[C@@H](CO)N(C)C(=O)c1ccc(Br)cc1)C(=O)NO [21(2), N-hydroxy-2(S)-(2-propynyl)-5-hydroxy-4(S)-[N-methyl-N-(4-bromophenylcarbonyl)amino]pentanamide] | – | – | 7.6

Now from value to molecule:

IC50 [1] [nM] | IC50 [2] [nM] | IC50 [3] [nM] | Compound
– | 40 | – | CCOCOC[C@H](C[C@H](COC)C(=O)NO)NC(=O)c1ccc(-c2ccco2)cc1 [8(7), N-hydroxy-5-ethoxymethoxy-2(R)-methoxymethyl-4(S)-[N-(4-(2-furyl)phenylcarbonyl)amino]pentanamide]
– | – | 14 | CCOCOC[C@H](C[C@H](COC)C(=O)NO)NC(=O)c1ccc(C#N)cc1 [compound 8]
